Where two headings read alike, the source gives them in different places. *1 amine or outer side, *2 acyl side, *3 side chain or, on linkers, in order; H or OH if unused. Where a SMILES comes first, the peptide text is derived from it. Bridges are numbered along the chain shown (N, C = ends). Roman numbers before positions name the chains, in order. [ ]: non-standard residue; d: D form. Actinocin(9to1) = Cc1c2oc3c(C)ccc(C(=O)[*:1])c3nc-2c(C(=O)[*:2])c(N)c1=O; NMeV = CN[C@H](C(=O)O)C(C)C; Sar = CNCC(=O)O
Assays:
[1] = tested on: HIF-1α–NanoLuc HCT116 cells; assay: Viability (Luc): CellTiter-Glo counter screen in HIF-1α–NanoLuc cells; type: cell-based, human; conditions: for Viability (Luc) confirmatory IC50: Table S7, 1% O2, 18 h; for IC50: 1% O2, 18 h
HRE–bla ME-180 cells = assay: Viability (BLA): CellTiter-Glo counter screen in HRE–bla cells; type: cell-based, human; conditions: for IC50 / Emax: Table S7, confirmatory screen; for IC50: 1% O2, 18 h; for Emax: read-out: Viability (BLA) confirmatory Efficacy
Protocol: (§1) Cell culture of HRE–bla ME-180 cells (Cat. No. K1644, Life Technologies) and HRE–bla assay were conducted according to a reported protocol [6]. […] The fluorescence signals (460/25 nm and 530/20 nm) of CCF4 and luminescence signals of CellTiter-Glo were acquired on an Envision and a ViewLux plate readers (Perkin Elmer), respectively.

HCT116 cells = assay: Cancer cell proliferation assay, HCT116; type: cell-based, human; conditions: for Emax / IC50: Homo sapiens; for Emax: read-out: HCT116 3-Day Viability Efficacy
Protocol: (§2) HCT116 and ME-180 cells (ATCC) were cultured according to manufacturer's instructions. […] Cell proliferation was quantified as relative luminescence unit (RLU) values using CellTiter-Glo viability assay reagent on a ViewLux plate reader (Perkin Elmer).

ME-180 cells = assay: Cancer cell proliferation assay, ME-180; type: cell-based; conditions: Homo sapiens; for Emax: read-out: ME-180 3-Day Viability Efficacy
Protocol: as §2

[2] = tested on: hypoxia response element-beta-lactamase (HRE–bla); assay: HRE-bla reporter gene assay in ME-180 cells; type: cell-based, human
Protocol: as §1

HIF-1α–NanoLuc = HIF-1α–NanoLuc reporter gene assay (qHTS primary and confirmatory screens); type: cell-based, human
[3] = HCT-116, 72 h, Table S8, 3 days
[4] = HCT-116, 72 h, Table S8, 3 days, read-out: HCT116 3-Day Viability IC50
[5] = ME-180, 72 h, Table S8, 3 days, read-out: ME-180 3-Day Viability IC50
[6] = Homo sapiens, ME-180, Table S7, confirmatory screen, read-out: HRE–bla confirmatory Efficacy
[7] = Homo sapiens, ME-180, Table S7, confirmatory screen, read-out: HRE–bla confirmatory IC50
[8] = Homo sapiens, 18 h, read-out: IC50 (primary screen, HIF-1α–NanoLuc assay)
[9] = Homo sapiens, read-out: Efficacy (primary screen, HIF-1α–NanoLuc assay)
[10] = Homo sapiens, read-out: HIF-1α–NanoLuc confirmatory Efficacy
[11] = Homo sapiens, read-out: HIF-1α–NanoLuc confirmatory IC50
[12] = Homo sapiens, read-out: HIF-1α–NanoLuc primary Efficacy
[13] = Homo sapiens, HCT-116, Table S7, confirmatory screen
[14] = Homo sapiens, Table S2, validation, read-out: Pathway inhibitors (validation) HIF-1α–NanoLuc Activity Efficacy
[15] = Homo sapiens, Table S7, confirmatory screen, read-out: HIF-1α–NanoLuc confirmatory Efficacy
[16] = Homo sapiens, Table S7, primary screen, read-out: HIF-1α–NanoLuc primary Efficacy

Compound	Viability (Luc) confirmatory IC50 [1]	IC50 (HRE–bla ME-180 cells; Homo sapiens, ME-180) [nM]	Emax (HCT116 cells; [3]) [%]	IC50 (HCT116 cells; [4]) [nM]	Emax (ME-180 cells; ME-180, 72 h, Table S8, 3 days) [%]	IC50 (ME-180 cells; [5]) [nM]	Emax [2, 6] [%]	IC50 [2, 7] [nM]	IC50 (HIF-1α–NanoLuc; [8]) [nM]	Emax (HIF-1α–NanoLuc; [9]) [%]	Emax (HIF-1α–NanoLuc; [10]) [%]	IC50 (HIF-1α–NanoLuc; [11]) [nM]	Emax (HIF-1α–NanoLuc; [12]) [%]	other results
C[C@H]1O[C@@H](O[C@H]2[C@@H](O)C[C@H](O[C@H]3[C@@H](O)C[C@H](O[C@H]4CC[C@@]5(C)[C@H](CC[C@@H]6[C@@H]5CC[C@]5(C)[C@@H](C7=CC(=O)OC7)CC[C@]65O)C4)O[C@@H]3C)O[C@@H]2C)C[C@H](O)[C@@H]1O [Digitoxin]	Inactive	90 ± 30	97 ± 8	2290 ± 3130	101 ± 4	90 ± 20	97	30 ± 10	30	124	101 ± 1	110 ± 10	124	–
COc1cccc2c1C(=O)c1c(O)c3c(c(O)c1C2=O)C[C@@](O)(C(C)=O)C[C@@H]3O[C@H]1C[C@H](N)[C@H](O)[C@H](C)O1 [Daunorubicin]	Inactive	3280 ± 1230	79 ± 28	2430 ± 1400	101 ± 4	170 ± 80	80 ± 5	1000 ± 440	750	51	98 ± 8	–	51	Emax (HIF-1α–NanoLuc; Homo sapiens, read-out: Pathway inhibitors (primary screen) HIF-1α–NanoLuc Activity Efficacy): 50%; Emax (HIF-1α–NanoLuc; Homo sapiens, read-out: Pathway inhibitors (validation) HIF-1α–NanoLuc Activity Efficacy): 98 ± 8%; IC50 (HIF-1α–NanoLuc; Homo sapiens, read-out: Pathway inhibitors (validation) HIF-1α–NanoLuc Activity IC50): 1960 ± 350 nM
C[C@@H]1O[C@@H](O[C@@H]2C=C3CC[C@@H]4[C@H](CC[C@]5(C)[C@@H](c6ccc(=O)oc6)CC[C@]45O)[C@@]3(C)CC2)[C@H](O)[C@H](O)[C@H]1O [Proscillaridin A]	Inactive	20	87 ± 20	90 ± 30	98 ± 2	20	93 ± 3	10	10	101	103 ± 3	10	101	IC50 (HIF-1α–NanoLuc; Homo sapiens, read-out: HIF-1α–NanoLuc primary IC50): 10 nM
CCN(CC)CCNC(=O)c1c(C)[nH]c(/C=C2\C(=O)Nc3ccc(F)cc32)c1C [Sunitinib]	–	16000 ± 8130	–	–	–	–	81 ± 32	–	–	–	–	–	–	IC50 [1, 13]: 26400 ± 9410 nM; Emax ([1]; Homo sapiens, HCT-116, Table S7, confirmatory screen, read-out: Viability (Luc) confirmatory Efficacy): 26 ± 7%; Emax (HRE–bla ME-180 cells; Homo sapiens, ME-180): 60 ± 38%; IC50 (HCT116 cells; HCT-116, Table 1, 72 h, read-out: 72-hr Viability HCT116 IC50): 37200 nM; HCT116 3-Day Viability IC50 (HCT116 cells; Table S8, 3 days): Inactive; IC50 (ME-180 cells; ME-180, Table 1, 72 h, read-out: 72-hr Viability ME-180 IC50): 19000 ± 4340 nM; Emax ([2]; Homo sapiens, ME-180, Table 1, percentage of inhibition compared to DMSO controls, read-out: HRE-bla Efficacy (converted)): 81%; IC50 ([2]; Homo sapiens, Table 1, ME-180 cells, 1% O2, 18 h, read-out: HRE-bla IC50): 17000 ± 3170 nM; IC50 (HIF-1α–NanoLuc; Homo sapiens, HCT-116, Table 1, HCT116 reporter cells, hypoxia 1% O2, 18 h, confirmatory, read-out: HIF-1α-NanoLuc IC50): 11300 ± 3710 nM; Emax (HIF-1α–NanoLuc; Homo sapiens, Table 1, percentage of inhibition compared to DMSO controls, read-out: HIF-1α-NanoLuc Efficacy (converted)): 80%; Emax (HIF-1α–NanoLuc; Homo sapiens, Table S2, primary screen, read-out: Pathway inhibitors (primary screen) HIF-1α–NanoLuc Activity Efficacy): 60%; IC50 (HIF-1α–NanoLuc; Homo sapiens, Table S2, primary screen, read-out: Pathway inhibitors (primary screen) HIF-1α–NanoLuc Activity IC50): 1680 nM; Emax (HIF-1α–NanoLuc; [14]): 80 ± 15%; Emax (HIF-1α–NanoLuc; [15]): 80 ± 15%; Emax (HIF-1α–NanoLuc; [16]): 60%
O=c1cc(N2CCOCC2)oc2c(-c3ccccc3)cccc12 [LY-294002]	Inactive	–	–	–	73 ± 4	15400 ± 1040	35 ± 8	12000 ± 2250	–	–	–	–	–	Viability (BLA) confirmatory IC50 (HRE–bla ME-180 cells; Table S7, 1% O2, 18 h): Inactive; HCT116 3-Day Viability IC50 (HCT116 cells; Table S8, 3 days): Inactive; Emax (HIF-1α–NanoLuc; [14]): 50 ± 9%; IC50 (HIF-1α–NanoLuc; Homo sapiens, Table S2, validation, read-out: Pathway inhibitors (validation) HIF-1α–NanoLuc Activity IC50): 14600 ± 3540 nM; Emax (HIF-1α–NanoLuc; [15]): 50 ± 9%
CCCCCCCCCCCCCC[N+](C)(C)C.[Br-] [MitMAB]	Inactive	–	–	–	–	–	–	–	–	–	–	–	–	IC50 (HRE–bla ME-180 cells): 18200 ± 2510 nM; HRE–bla confirmatory Efficacy ([2]; Table S7, confirmatory screen): 100 ± 5%; IC50 ([2]; Table S7, confirmatory screen, read-out: HRE–bla confirmatory IC50): 5730 ± 1880 nM; HIF-1α–NanoLuc confirmatory Efficacy (HIF-1α–NanoLuc; Table S7, confirmatory screen): 99 ± 9%; IC50 (HIF-1α–NanoLuc; Table S7, confirmatory screen, read-out: HIF-1α–NanoLuc confirmatory IC50): 15200 ± 7160 nM; HIF-1α–NanoLuc primary Efficacy (HIF-1α–NanoLuc; Table S7, primary screen): 129%; IC50 (HIF-1α–NanoLuc; Table S7, primary screen, read-out: HIF-1α–NanoLuc primary IC50): 2110 nM
C[C@@H]1C[C@@H]([C@H](O)CC2CC(=O)NC(=O)C2)C(=O)[C@@H](C)C1 [Cycloheximide]	Inactive	8340 ± 4610	–	–	–	–	92 ± 2	1060 ± 120	240	92	104 ± 5	530	92	Effect on HIF-1α–NanoLuc level / luciferase activity, in words (HIF-1α–NanoLuc): showed reduced protein turnover and decreased luciferase signal
CC(=O)Oc1ccccc1C(=O)Nc1ncc([N+](=O)[O-])s1 [Nitazoxanide]	–	3000 ± 340	–	–	–	–	88 ± 1	3000 ± 340	–	–	–	–	–	IC50 [1, 13]: 9390 ± 1080 nM; Emax (HIF-1α–NanoLuc; [15]): 101 ± 14%; IC50 (HIF-1α–NanoLuc; Homo sapiens, Table S7, confirmatory screen, read-out: HIF-1α–NanoLuc confirmatory IC50): 17300 ± 1170 nM; Emax (HIF-1α–NanoLuc; [16]): 150%; IC50 (HIF-1α–NanoLuc; Homo sapiens, Table S7, primary screen, read-out: HIF-1α–NanoLuc primary IC50): 9440 nM
Cc1c2oc3c(C)ccc(C(=O)N[C@@H]4C(=O)N[C@H](C(C)C)C(=O)N5CCC[C@H]5C(=O)N(C)CC(=O)N(C)[C@@H](C(C)C)C(=O)O[C@@H]4C)c3nc-2c(C(=O)N[C@@H]2C(=O)N[C@H](C(C)C)C(=O)N3CCC[C@H]3C(=O)N(C)CC(=O)N(C)[C@@H](C(C)C)C(=O)O[C@@H]2C)c(N)c1=O [Actinomycin D] (I: T[dV]P[Sar][NMeV] / II: T[dV]P[Sar][NMeV]; ester I:1-I:C, II:1-II:C; linker I:N-II:N via Actinocin(9to1))	Inactive	1520 ± 2330	–	–	–	–	78 ± 5	20	40	99	87 ± 4	30 ± 10	99	Effect on HIF-1α–NanoLuc level / luciferase activity, in words (HIF-1α–NanoLuc): caused reduced NanoLuc activity
COC[C@H]1OC(=O)c2coc3c2[C@@]1(C)C1=C(C3=O)[C@@H]2CCC(=O)[C@@]2(C)C[C@H]1OC(C)=O [Wortmannin]	–	11400 ± 4790	–	–	80 ± 3	7000 ± 4330	91 ± 8	570 ± 170	–	–	–	–	–	Emax (HRE–bla ME-180 cells; Homo sapiens, ME-180): 47 ± 11%; HCT116 3-Day Viability IC50 (HCT116 cells; Table S8, 3 days): Inactive
C[C@@H]1O[C@@H](O[C@H]2C[C@@H](O)[C@]3(CO)[C@H]4[C@H](O)C[C@]5(C)[C@@H](C6=CC(=O)OC6)CC[C@]5(O)[C@@H]4CC[C@]3(O)C2)[C@H](O)[C@H](O)[C@H]1O [Ouabain]	–	130	73 ± 13	630 ± 370	98 ± 4	130 ± 10	94 ± 4	80 ± 10	–	–	–	–	–	–
